≈ marks a conversion by molar mass, not a printed value.
Test system: S. aureus clinical isolates and S. aureus ATCC 29213
Assay: MIC assay according to CLSI criteria, Example 2, S. aureus strains
Format: cell-based, Staphylococcus aureus
Settings: Staphylococcus aureus
In short: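 Wells received roughly 5×10^5 S. aureus cells taken in exponential growth, in cation-adjusted MH broth. Plates held aerobically at 37° C for 18 hours.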

## C=C[C@]1(C)C[C@@H](OC(=O)CS[C@@H]2C[C@H]3CC[C@@H](C2)N3C)[C@]2(C)[C@H](C)CC[C@]3(CCC(=O)[C@H]32)[C@@H](C)[C@@H]1O [Retapamulin]
ATCC 29213 / MRSA, strain MRSA 15
  MIC: 0.06 µg/mL (≈ 0.116 µM)
ATCC 29213 / MRSA, strain MRSA 16
  MIC: 0.06 µg/mL (≈ 0.116 µM)
ATCC 29213 / MRSA, strain MRSA 17
  MIC: 0.03 µg/mL (≈ 0.0579 µM)
ATCC 29213 / MRSA, strain MRSA 18
  MIC: 0.06 µg/mL (≈ 0.116 µM)
ATCC 29213 / MRSA, strain MRSA 19
  MIC: 0.03 µg/mL (≈ 0.0579 µM)
ATCC 29213 / MRSA, strain MRSA 20
  MIC: 0.06 µg/mL (≈ 0.116 µM)
ATCC 29213 / MRSA, strain MRSA 21
  MIC: 0.125 µg/mL (≈ 0.241 µM)
ATCC 29213 / MRSA, strain MRSA 22
  MIC: 0.06 µg/mL (≈ 0.116 µM)
ATCC 29213 / MRSA, strain MRSA 23
  MIC: 0.06 µg/mL (≈ 0.116 µM)
ATCC 29213 / MRSA, strain MRSA 24
  MIC: 0.06 µg/mL (≈ 0.116 µM)
ATCC 29213 / MRSA, strain MRSA 25
  MIC: 0.06 µg/mL (≈ 0.116 µM)
ATCC 29213 / MRSA, strain MRSA 26
  MIC: 0.06 µg/mL (≈ 0.116 µM)
ATCC 29213 / MRSA, strain MRSA 27
  MIC: 0.06 µg/mL (≈ 0.116 µM)
ATCC 29213 / MRSA, strain MRSA 27b
  MIC: 0.02 µg/mL (≈ 0.0386 µM)
ATCC 29213 / MRSA, strain MRSA 28
  MIC: 0.03 µg/mL (≈ 0.0579 µM)
ATCC 29213 / MRSA, strain MRSA 29
  MIC: 0.06 µg/mL (≈ 0.116 µM)
ATCC 29213 / MRSA, strain MRSA 30
  MIC: 0.03 µg/mL (≈ 0.0579 µM)
ATCC 29213 / MRSA, strain MRSA 31
  MIC: 16 µg/mL (≈ 30.9 µM)
ATCC 29213 / MRSA, strain MRSA 32
  MIC: 0.06 µg/mL (≈ 0.116 µM)
ATCC 29213 / MRSA, strain MRSA 33
  MIC: 0.06 µg/mL (≈ 0.116 µM)
ATCC 29213 / MRSA, strain MRSA 34
  MIC: 0.06 µg/mL (≈ 0.116 µM)
ATCC 29213 / MRSA, strain MRSA 35
  MIC: 0.03 µg/mL (≈ 0.0579 µM)
ATCC 29213 / MRSA, strain MRSA 36
  MIC: 0.06 µg/mL (≈ 0.116 µM)
ATCC 29213 / MRSA, strain MRSA 37
  MIC: 0.06 µg/mL (≈ 0.116 µM)
ATCC 29213 / MRSA, strain MRSA 38
  MIC: 0.06 µg/mL (≈ 0.116 µM)
ATCC 29213 / MRSA, strain MRSA 39
  MIC: 0.06 µg/mL (≈ 0.116 µM)
ATCC 29213 / MRSA, strain MRSA 40
  MIC: 0.03 µg/mL (≈ 0.0579 µM)
ATCC 29213 / MRSA, strain MRSA 41
  MIC: 0.02 µg/mL (≈ 0.0386 µM)
ATCC 29213 / MRSA, strain MRSA 42
  MIC: 0.06 µg/mL (≈ 0.116 µM)
ATCC 29213 / MRSA, strain MRSA 43
  MIC: 0.06 µg/mL (≈ 0.116 µM)
ATCC 29213 / MRSA, strain MRSA 44
  MIC: 0.02 µg/mL (≈ 0.0386 µM)
ATCC 29213 / MRSA, strain MRSA 45
  MIC: 0.02 µg/mL (≈ 0.0386 µM)
ATCC 29213 / MRSA, strain MRSA 46
  MIC: 0.02 µg/mL (≈ 0.0386 µM)
ATCC 29213 / MRSA, strain MRSA 47
  MIC: 0.02 µg/mL (≈ 0.0386 µM)
ATCC 29213 / MRSA, strain MRSA 48
  MIC: 0.02 µg/mL (≈ 0.0386 µM)
ATCC 29213 / MRSA, strain MRSA 49
  MIC: 0.02 µg/mL (≈ 0.0386 µM)
ATCC 29213 / MRSA, strain MRSA 50
  MIC: 0.02 µg/mL (≈ 0.0386 µM)
ATCC 29213 / MRSA, strain MRSA 51
  MIC: 0.03 µg/mL (≈ 0.0579 µM)
ATCC 29213 / MRSA, strain MRSA 52
  MIC: 0.02 µg/mL (≈ 0.0386 µM)
ATCC 29213 / MRSA, strain MRSA 53
  MIC: 0.03 µg/mL (≈ 0.0579 µM)
ATCC 29213 / MRSA, strain MRSA 54
  MIC: 0.03 µg/mL (≈ 0.0579 µM)
ATCC 29213 / MRSA, strain MRSA 55
  MIC: 0.02 µg/mL (≈ 0.0386 µM)
ATCC 29213 / MRSA, strain MRSA 56
  MIC: < 0.01 µg/mL
ATCC 29213 / MRSA, strain MRSA 57
  MIC: 0.02 µg/mL (≈ 0.0386 µM)
ATCC 29213 / MRSA, strain MRSA 58
  MIC: 0.02 µg/mL (≈ 0.0386 µM)
ATCC 29213 / MRSA, strain MRSA 59
  MIC: 0.02 µg/mL (≈ 0.0386 µM)
ATCC 29213 / MRSA, strain MRSA 60
  MIC: 0.02 µg/mL (≈ 0.0386 µM)
ATCC 29213 / MRSA, strain MRSA 61
  MIC: 0.02 µg/mL (≈ 0.0386 µM)
ATCC 29213 / MRSA, strain MRSA 62
  MIC: 0.02 µg/mL (≈ 0.0386 µM)
ATCC 29213 / MRSA, strain MRSA 63
  MIC: 0.02 µg/mL (≈ 0.0386 µM)
ATCC 29213 / MRSA, strain MRSA 64
  MIC: 0.02 µg/mL (≈ 0.0386 µM)
ATCC 29213 / MRSA, strain MRSA 65
  MIC: 0.02 µg/mL (≈ 0.0386 µM)
ATCC 29213 / MRSA, strain MRSA 66
  MIC: 0.02 µg/mL (≈ 0.0386 µM)
ATCC 29213 / MRSA, strain MRSA 67
  MIC: 0.02 µg/mL (≈ 0.0386 µM)
ATCC 29213 / MRSA, strain MRSA 68
  MIC: 0.02 µg/mL (≈ 0.0386 µM)
ATCC 29213 / MRSA, strain MRSA 69
  MIC: < 0.01 µg/mL
ATCC 29213 / MRSA, strain MRSA 70
  MIC: 0.02 µg/mL (≈ 0.0386 µM)
ATCC 29213 / MRSA, strain MRSA 71
  MIC: < 0.01 µg/mL
ATCC 29213 / MRSA, strain MRSA 72
  MIC: 0.03 µg/mL (≈ 0.0579 µM)
ATCC 29213 / MRSA, strain MRSA 73
  MIC: 0.03 µg/mL (≈ 0.0579 µM)
ATCC 29213 / MRSA, strain MRSA 74
  MIC: 0.03 µg/mL (≈ 0.0579 µM)
ATCC 29213 / MRSA, strain MRSA 75
  MIC: 0.03 µg/mL (≈ 0.0579 µM)
ATCC 29213 / MRSA, strain MRSA 76
  MIC: 0.03 µg/mL (≈ 0.0579 µM)
ATCC 29213 / MRSA, strain MRSA 77
  MIC: 0.03 µg/mL (≈ 0.0579 µM)
ATCC 29213 / MRSA, strain MRSA 78
  MIC: 0.03 µg/mL (≈ 0.0579 µM)
ATCC 29213 / MRSA, strain MRSA 79
  MIC: < 0.01 µg/mL
ATCC 29213 / MRSA, strain MRSA 80
  MIC: 0.02 µg/mL (≈ 0.0386 µM)
ATCC 29213 / MRSA, strain MRSA 81
  MIC: 0.03 µg/mL (≈ 0.0579 µM)
ATCC 29213 / MRSA, strain MRSA 82
  MIC: 0.03 µg/mL (≈ 0.0579 µM)
ATCC 29213 / MRSA, strain MRSA 83
  MIC: 0.03 µg/mL (≈ 0.0579 µM)
ATCC 29213 / MRSA, strain MRSA 84
  MIC: 0.03 µg/mL (≈ 0.0579 µM)
ATCC 29213 / MRSA, strain MRSA 85
  MIC: 0.03 µg/mL (≈ 0.0579 µM)
ATCC 29213 / MRSA, strain MRSA 86
  MIC: 0.03 µg/mL (≈ 0.0579 µM)
ATCC 29213 / MRSA, strain MRSA 87
  MIC: 0.02 µg/mL (≈ 0.0386 µM)
ATCC 29213 / MRSA, strain MRSA 88
  MIC: 0.03 µg/mL (≈ 0.0579 µM)
ATCC 29213 / MRSA, strain MRSA 89
  MIC: 0.02 µg/mL (≈ 0.0386 µM)
ATCC 29213 / MRSA, strain MRSA 90
  MIC: 0.06 µg/mL (≈ 0.116 µM)
ATCC 29213 / MRSA, strain MRSA 91
  MIC: 0.06 µg/mL (≈ 0.116 µM)
ATCC 29213 / MRSA, strain MRSA 92
  MIC: 0.06 µg/mL (≈ 0.116 µM)
ATCC 29213 / MRSA, strain MRSA 93
  MIC: 0.02 µg/mL (≈ 0.0386 µM)
ATCC 29213 / MRSA, strain MRSA 94
  MIC: 0.03 µg/mL (≈ 0.0579 µM)
ATCC 29213 / MRSA, strain MRSA 95
  MIC: 0.03 µg/mL (≈ 0.0579 µM)
ATCC 29213 / MRSA, strain MRSA 96
  MIC: 0.03 µg/mL (≈ 0.0579 µM)
ATCC 29213 / MRSA, strain MRSA 97
  MIC: 0.03 µg/mL (≈ 0.0579 µM)
ATCC 29213 / MRSA, strain MRSA 98
  MIC: 0.03 µg/mL (≈ 0.0579 µM)
ATCC 29213 / MRSA, strain MRSA 99
  MIC: 0.03 µg/mL (≈ 0.0579 µM)
ATCC 29213 / MRSA, strain MRSA 100
  MIC: 1 µg/mL (≈ 1.93 µM)
ATCC 29213 / MRSA, strain MRSA 101
  MIC: 0.03 µg/mL (≈ 0.0579 µM)
ATCC 29213 / MRSA, strain MRSA 102
  MIC: 0.03 µg/mL (≈ 0.0579 µM)
ATCC 29213 / MRSA, strain MRSA 103
  MIC: 0.03 µg/mL (≈ 0.0579 µM)
ATCC 29213 / MRSA, strain MRSA 104
  MIC: 0.03 µg/mL (≈ 0.0579 µM)
ATCC 29213 / MRSA, strain MRSA 105
  MIC: 0.03 µg/mL (≈ 0.0579 µM)
ATCC 29213 / MRSA, strain MRSA 106
  MIC: 0.06 µg/mL (≈ 0.116 µM)
ATCC 29213 / MRSA, strain MRSA 107
  MIC: 0.06 µg/mL (≈ 0.116 µM)
ATCC 29213 / MRSA, strain MRSA 108
  MIC: 0.03 µg/mL (≈ 0.0579 µM)
ATCC 29213 / MRSA, strain MRSA 109
  MIC: 0.03 µg/mL (≈ 0.0579 µM)
ATCC 29213 / MRSA, strain MRSA 110
  MIC: 0.03 µg/mL (≈ 0.0579 µM)
ATCC 29213 / MRSA, strain MRSA 111
  MIC: 0.03 µg/mL (≈ 0.0579 µM)
ATCC 29213 / MRSA, strain MRSA 112
  MIC: 0.03 µg/mL (≈ 0.0579 µM)
ATCC 29213 / MRSA, strain MRSA 113
  MIC: 0.03 µg/mL (≈ 0.0579 µM)
ATCC 29213 / MSSA, strain MSSA 01
  MIC: 0.03 µg/mL (≈ 0.0579 µM)
ATCC 29213 / MSSA, strain MSSA 02
  MIC: 0.03 µg/mL (≈ 0.0579 µM)
ATCC 29213 / NEWMAN, strain Newman
  MIC: 0.03 µg/mL (≈ 0.0579 µM)
